Assay [1] deals with oral squamous cell carcinoma cells (OC3-IV2). The experiment in a line: MTT survival assay, OC3-IV2. The assay is classed as cell-based. The settings on record: Homo sapiens, 48 h, read-out: IC50, survival rate. The method, then: According to the present invention, human oral cancer cell line OC3-IV2 cells (Lin S C et al, J Oral Pathol Med. 2004 February; 33(2):79-86 and Lu Y C et al, Cancer Prey Res (Phila). 2012 April; 5(4):665-74) were cultured in a 1:1 ratio of Dulbecco's modified Eagle medium (DMEM; Invitrogen) and keratinocyte serum-free medium (KSFM; Invitrogen) containing 10% fetal bovine serum (FBS; Invitrogen, Carlsbad, Calif., USA), 1% L-glutamine (L-Gln, Invitrogen) and 1% antibiotic-antimycotic (AA, Invitrogen). Cells were maintained in a humidified atmosphere containing 5% CO2 at 37° C., and the culture medium was replaced every 2 days.
Isoplumbagin (AKOS006277326, acquired from AKos GmbH, Steinen, Germany) was dissolved in dimethyl sulfoxide (DMSO) and added to the medium, so that the final concentration of DMSO was less than 0.1%. The survival rate of isoplumbagin on OC3-IV2, U87, H1299 and PC3 cell lines was determined using the 3-(4,5-dimethylthiazol-2-yl)-2,5-diphenyltetrazolium bromide (MTT; Sigma-Aldrich) assays. 3×10^3 cells/well were seeded in 96-well plates. After incubation for 24 h, cells were treated with isoplumbagin at various concentrations (0, 1, 5, 10, 25, 50 and 100 μM) and incubated for a further 48 h. At the end of treatment, 10 μL 5 mg/mL MTT was added to each well. […] The absorbance of dissolved formazan was measured at 550 nm wavelengths by a spectrophotometer. […]

The test system of assay [2] is human non-small cell lung carcinoma cells (H1299). The experiment in a line: Boyden chamber invasion assay, H1299. Conditions: 2.5, 5 and 10 μM, 24 h, dose dependency (FIG. 2C). The assay is classed as cell-based. As for the experimental part: Cells were harvested by […] and resuspended in a serum-free medium with 0.1% BSA. Then, […] of cell suspension (2×10^5 cells) was seeded into the upper insert of SPLInsert with Polyethylene terephthalate (PET) membrane (pore size: 8.0 μm) (SPL Lifesciences, Korea) pre-coated with matrigel (BD Biosciences, San Jose, Calif.). The bottom well of 24-well plate of SPLInsert was filled with cell medium containing 10% FBS with different concentrations of isoplumbagin (5, 7.5 and 10 μM, Experimental group of oral squamous cell carcinoma cells (OC3-IV2); 2.5, 5 and 10 μM, Experimental groups of human primary glioblastoma cells (U87), human non-small cell lung carcinoma cells (H1299), human prostate cancer cells (PC3) and human cervical cancer cells (Hela)) or without isoplumbagin (DMSO added). […] Number of cells was counted using Image J. Relative invasion ability was calculated as cell number per area.
FIGS. 2A-2E show the inhibitory effect of different doses of isoplumbagin on invasion for oral squamous cell carcinoma cells (OC3-IV2), human primary glioblastoma cells (U87), human non-small cell lung carcinoma cells (H1299), prostate cancer cells (PC3) and cervical cancer cells (Hela) assessed with the Boyden chamber assays. *Compared with solvent control (DMSO). […]

For assay [3], the system named is mitochondrial complex IV. The experiment in a line: Mitochondrial complex activity in permeabilized cells (Oroboros). The assay is classed as cell-based, human. Conditions: OC3-IV2 permeabilized with 5 μM digitonin; 2.5 μM. The method, then:
For the cell permeabilization and measurement of mitochondrial complex activity in permeabilized cells using Oroboros Instruments, 5×10^5 cells/mL treated with DMSO or 2.5 μM isoplumbagin suspended in 2 mL MiR05 buffer (110 mM D-sucrose, 0.5 mM EGTA, 3.0 mM MgCl2, 60 mM lactobionic acid, 10 mM KH2PO4, 20 mM taurine, 20 mM HEPES, 1 g/L BSA, pH 7.1) were added in O2k Oxygraph chambers. After cells had stabilized at routine respiration, plasma membrane permeabilization was performed by adding 5 μM digitonin and then O2 consumption rate was measured in response to sequential additions of 10 mM glutamate and 2 mM malate or 10 mM succinate, followed by 5 mM ADP, […], 0.5 μM FCCP, 1 μM rotenone, 1 μM antimycin A, 0.1 mM TMPD, 0.4 mM ascorbate and 5 mM NaN3.
FIGS. 6A and 6B show the inhibitory effect of isoplumbagin on mitochondrial function and complex IV activity of oral squamous cell carcinoma cells (OC3-IV2). Oxygen consumption rate (OCR) of OC3-IV2 cells treated with DMSO (as control) or 2.5 μM isoplumbagin were measured by Oroboros instruments (FIG. 6A). […] OC3-IV2 cells treated with DMSO or 2.5 μM isoplumbagin were permeabilized with 5 μM digitonin (Dig) and added indicated substrates and inhibitors, and then mitochondria complex I/IV activity were determined by Oroboros instruments (FIG. 6B). […]

Values after ≈ are worked out from the molar mass of the structure shown.

As to `CC1=CC(=O)c2cccc(O)c2C1=O` [isoplumbagin, 5-hydroxy-3-methyl-1,4-naphthoquinone], in assay [1], the IC50 is 1.02 µg/mL (≈ 5.42 µM). In assay [2], the “cancer cells migrating through the membrane (invasion)” value is “decrease significantly”. In assay [3], the “mitochondrial complex IV activity” value was “inhibiting mitochondrial complex IV activity”.

Values taken from patent US20210113492A1, “METHOD FOR INHIBITING PROLIFERATION AND METASTASIS OF CANCER CELLS BY USING NAPHTHOQUINONE DERIVATIVE” (National Tsing Hua University, priority 2019, published 2021).
